According to patent publication US20100247461A1, “ANTI-INFLAMMATORY COMPLEXES” (Signum Biosciences, Inc., priority 2009, published 2010):
Converted amounts (≈) assume the structure as drawn. Where two headings read alike, the source gives them in different places. One block for each molecule: values may come before it.

Key:
[1] = test system: Propionibacterium acnes (strain ATCC 6919); assay: Inhibition of Propionibacterium acnes growth; type: cell-based
Procedure: The assay for the inhibition of growth of Propionibacterium acnes bacteria is described elsewhere (Nakatsuji et al., J Invest Dermatol, 2009, 129: 2480-2488). In brief, the strain ATCC 6919 of P. acnes (American Type Culture Collection, Manassas, Va.) was cultured on Brucella agar (R01254, Remel, Lenexa, Kans.) supplemented with 5% (v/v) defibrinated sheep blood, vitamin K (5 mg/ml, Remel, Lenexa, Kans.), and hemin (50 mg/ml, Remel, Lenexa, Kans.), under an anaerobic condition using Gas-Pak (BD, Sparks, Md.) at 37° C. A single colony was inoculated in Reinforced Clostridium Medium (Oxford, Hampshire, England) and cultured at 37° C. under the anaerobic condition. Each of the inventive complexes—AFC-Sr, AFC-Ag and AFC-Zn as well as AFC were dissolved in 100% (v/v) DMSO. Samples of each inventive complex, AFC and a solution of benzoyl peroxide (“BPO”) were then each incubated with an inoculum of P. acnes at a concentration of 1×10^6 CFU per mL in Reinforced Clostridium Medium in a 96-well microplate (100 μL per well) under anaerobic conditions for 72 hours. Samples of each were tested at final concentrations per well of 0.25 μg/mL, 0.5 μg/mL, 1.0 μg/mL, 1.95 μg/mL, 3.9 μg/mL, 7.8 μg/mL, 15.625 μg/mL, 31.25 μg/mL, 62.5 μg/mL, 125 μg/mL, 250μg/mL, and 500 μg/mL. A control well received only 5% (v /v) of DMSO in place of a sample of an inventive complex. After 72 hours incubation under anaerobic conditions, the P. acnes cultures in the 96-well microplate were mixed well and then absorbance readings at 600 nm were taken to determine bacterial growth. […] Growth curves of P. acnes determined for BPO, AFC, AFC-Sr, AFC-Ag and AFC-Zn are depicted in FIG. 3.

[2] = complex and its solutions; compared with ordinary silver salts of carboxylic acids
[3] = test system: TPA-treated mouse ears (edema, ear thickness); assay: TPA mouse ear model of inflammation - edema inhibition; type: in vivo
Procedure: In brief, mice were sedated and their ears were treated with 1.2 μg/20 uL TPA (i.e., tetradecanoylphorbol-13-acetate). After 5 minutes, we dosed these TPA-treated ears with a single 8 μg/20 μL dose, a 2 μg/20 μL dose, or both doses, of provided complexes. After 24 hours, the mice were sacrificed and edema was measured by taking micrometer readings of each ear. […] These values were corrected for the thickness of normal, non TPA-treated mouse ears of littermate controls.

[4] = test system: MPO activity (neutrophil infiltration) in P. acnes-injected ear; assay: P. acnes-induced mouse ear model of inflammation - MPO endpoint; type: in vivo
Procedure: The methods for a model of P. acnes-inflammation are described elsewhere (Nakatsuji et al., J Invest Dermatol, 2008, 128: 2451-2457).
The protocol for inducing inflammation using P. acnes bacterial challenge on the mouse ear was slightly modified from the method described previously (Natatsuji et al., 2008). Briefly, Swiss Webster (ICR, 6-8 weeks old) mouse ears were injected with living P. acnes culture intradermally. An amount of 20 μl aliquots of living P. acnes (ATCC 6919, 3×10^6 CFU) suspended in PBS was intradermally injected in the central portion of the ear. As a control, 20 μl of PBS was injected into control animals.
To assay for inhibition of dermal neutrophil infiltration by AFC complexes, a standard method was used (see Bradley et al., J Invest Dermatol, 1982,78: 206-209; Young et al., J Invest Dermatol, 1983, 80: 48-52; De Young et al, Agents Actions, 1989, 26: 335-41; and Rao et al., Inflammation, 1993, 17: 723-41). Briefly, 6mm biopsy punches taken from both compound-treated ears as well as non-treated control ears were homogenized in 400 μl of 0.5% hexadecyltrimethylammonium bromide in 50 mM potassium phosphate buffer (pH 6.0) using the Fast Prep 24 (MP Biomedicals, Solon, Ohio). Supernatants were assayed for MPO activity using a model EL 340 96-well plate reader (BioTek Instruments, Winooski, Vt.). The percent inhibition of neutrophil infiltration by each AFC complex was determined by comparing the average MPO levels in the presence and absence of these compounds. The percent inhibition of MPO was determined by taking the average MPO activity of compound-treated ears and dividing it by the average MPO activity of 12 ears that only received the P. acnes challenge and subtracting that value from 100%. These values were corrected for the MPO activity of normal, non P. acnes-treated mouse ears of littermate controls. Summary of MPO activity ranges determined from an MPO activity assay for dexamethasone (administered at a dose of 1.6 mg/20 μL), clobetasol (administered at a dose of 0.1 mg/20 μL), salicylic acid (administered at a dose of 0.4 mg/20 μL), AFC (administered at a dose of 0.4 mg/20 μL), AFC-Strontium complex (administered at a dose of 0.4 mg/20 μL) and SFC-disodium are presented in Table 4. “+” indicates a range of 0-20%, “++” indicates a range of 20-40%, and “+++” indicates >40% inhibition.

[5] = test system: MPO (myeloperoxidase), neutrophil marker; assay: TPA mouse ear model of inflammation - MPO inhibition (dermal neutrophil infiltration); type: in vivo
Procedure: Briefly, we homogenized 6mm biopsy punches taken from both compound-treated ears as well as TPA-treated and non-treated control groups. We quantitated the levels of MPO by a colorimetric reaction that was measured spectrophotometrically. The percent inhibition of neutrophil infiltration by each complex was determined by comparing the average MPO levels in the presence and absence of these compounds. The calculation for percent inhibition of MPO was determined similar to that as described for calculating the percent edema inhibition, see the Edema Inhibition protocol, supra.

neutrophils = assay: Inhibition of oxidative burst from neutrophils (fMLP-induced superoxide release); type: cell-based; settings: reduction of superoxide formation, fMLP 0.2 μM, 0 to 100 μM compound; read-out: ED50 Respiratory Burst
Procedure: During inflammation, neutrophils produce and release superoxide ions, otherwise known as oxidative burst response, causing cytotoxicity. […] The superoxide release assay is based on published protocols (Goldstein et al. (1975). J. Clin. Invest. 56(5): 1155-63). Briefly, cells were pre-incubated for 10 min at 37° C. with a mixture of cytochrome c (75 μM final concentration), cytochalasin B (5 μg/ml) with or without superoxide dismutase (SOD) (10 μg/ml) and with or without AFC, AFC-Calcium complex, and AFC-Strontium complex (ranging from 0 to 100 μM). To initiate O2^− release, fMLP (0.2 μM) was added the cells are incubated for 10 min at 37° C. Samples were then placed on ice for 5 min and subsequently centrifuged at 3,000 rpm at 4° C. The supernatant was then analyzed by spectrophotometric measurement at 550 and 556.5 nm. The ED50 values for the reduction of superoxide formation, obtained with AFC, AFC-Calcium complex, and AFC-Strontium complex are depicted in Table 2.

[6] = test system: TPA-treated mouse ears (edema, ear thickness); assay: TPA mouse ear model of inflammation - edema inhibition; type: in vivo; settings: topical, 24 hours
[7] = test system: TPA-treated mouse ears (erythema, Δa* redness); assay: TPA mouse ear model of inflammation - erythema inhibition; type: in vivo; settings: topical, 24 hours
Procedure: The protocol for measuring erythema inhibition by provided complexes was developed in-house by utilizing the CR-400 chroma meter from Konica Minolta (2). This instrument was used to measure the Δa*redness value from 6 mm biopsy punches taken 24 hours post TPA/compound treatment as described in the edema inhibition section above. […] These values were corrected for the Δa* value of non TPA-treated mouse ears of littermate controls.

[8] = test system: mouse skin reepithelialization; assay: Mouse wound healing model - skin reepithelialization; type: in vivo
Excerpt: The healing of wounded skin is mediated by epidermal reepithelialization that requires keratinocyte migration. Glucocorticoids are known to inhibit wound healing (Ehrlich et al., Proc Soc Exp Biol Med, 1971, 137: 936-938; Leibovich et al., Am J Pathol, 1975, 78, 71-100). […] The methods for studying mouse skin reepithelialization using both partial and full thickness mouse wound healing models have been described elsewhere (Kim et al. Wound Repair Regen, 2001, 9: 386-390). In brief, for partial thickness wounds, a 3 mm-diameter circle of epidermis is removed from the ventral auricle. The resulting wound is cleansed and dressed with an occlusive polyurethane film. The mouse ears are excised on days 3, 5, 8, and 11 post-operation and fixed in 10% buffered formalin. Following day 8 post-operation, sampling of treated mice is performed to determine completion of healing. For full thickness wounds, mice heads are shaved and depilated prior to excising the skin. The cleaned and dressed wounds are harvested and fixed at days 3, 5, 8 and 10 and fixed in 10% buffered formalin.

[9] = 72 hours, anaerobic, absorbance 600 nm, 1×10^6 CFU per mL

Molecule: CC(=O)N[C@@H](CSC/C=C(\C)CC/C=C(\C)CCC=C(C)C)C(=O)[O-].[Ag+] [AFC-Silver complex, Silver (R)-2-acetamido-3-((2E,6E)-3,7,11-trimethyldodeca-2,6,10-trienylthio)propanoate]
- IC50 (inhibition of P. acnes growth) [1]: 16.9 µg/mL
- light and air stability [2]: enhanced light and air stability

Molecule: CC(=O)N[C@@H](CSC/C=C(\C)CC/C=C(\C)CCC=C(C)C)C(=O)O [AFC-strontium complex, Strontium (R)-2-acetamido-3-((2E,6E)-3,7,11-trimethyldodeca-2,6,10-trienylthio)propanoate]
- ED50 for edema inhibition ([3]; TPA-treated mouse ear, topical): 21700 µM
- decrease of edema compared with another complex or AFC alone ([3]; mouse ear inflammation assay): more effective at decreasing edema than the calcium complex
- MPO % Inhibition ([4]; dose of 0.4 mg/20 μL): +++ (“+++” indicates >40% inhibition)
- ED50 in the MPO assay ([5]; TPA-treated mouse ear, several concentrations, inhibitory activity curves): 315 μg/ear
- ED50 value for inhibiting neutrophil infiltration ([5]; TPA-treated mouse ear, topical): 5020 µM
- % MPO Inhibition in the Mouse Ear Inflammation Assay (4% concentration) ([5]; TPA-treated mouse ear, topical, 4% concentration, 24 hours): +++ (“+++” indicates >80% inhibition of MPO)
- MPO inhibition compared with another complex or AFC alone ([5]; mouse ear inflammation assay): improved MPO inhibition than the calcium complex
- fold lower ED50 value for inhibiting neutrophil infiltration than the AFC oil ([5]; versus AFC oil): ~8 fold
- IC50 (inhibition of P. acnes growth) [1, 9]: 12.6 µg/mL
- EC50 (neutrophils): 35.6 µM
- % Edema Inhibition in the Mouse Ear Inflammation Assay (4% concentration) [6]: +++ (“+++” indicates >50% inhibition of edema)
- % Erythema Inhibition in the Mouse Ear Inflammation Assay (4% concentration) [7]: +++ (“+++” indicates >40% inhibition of erythema)

- IC50 ([1]; Cutibacterium acnes, ATCC6919, 72 h, 72 hours, anaerobic, absorbance 600 nm, 1×10^6 CFU per mL, read-out: IC50 (inhibition of P. acnes growth)): 161 µg/mL (≈ 665 µM)
Molecule: O=C(OOC(=O)c1ccccc1)c1ccccc1 [BPO, benzoyl peroxide, reference compound]

Molecule: C[C@H]1C[C@H]2[C@@H]3CCC4=CC(=O)C=C[C@]4(C)[C@@]3(F)[C@@H](O)C[C@]2(C)[C@@]1(O)C(=O)CCl [Clobetasol]
- MPO % Inhibition ([4]; dose of 0.1 mg/20 μL): +++ (“+++” indicates >40% inhibition)
- effect on mouse skin reepithelialization of wounds [8]: significantly delayed

Molecule: Zinc (R)-2-acetamido-3-((2E,6E)-3,7,11-trimethyldodeca-2,6,10-trienylthio)propanoate [AFC-Zinc complex]
- IC50 (inhibition of P. acnes growth) [1, 9]: 9.2 µg/mL
